1 molecule from patent US6506767B1, “8-chloro-6,11-dihydro-11-(4-piperidylidine)-5H-benzo[5,6]cyclohepta[1-2-b] pyridine” (Schering Corporation, priority 1997, dated 2003) can be followed below.

Data set [1] has as its system histamine—induced lethality in guinea pigs. Description: prevention of histamine-induced lethality in guinea pigs. Conditions: standard animal model. It counts as in vivo.
Data set [2] is described as follows: Stability testing for crystalline polymorph form 1. The data set is classed as physicochemical. Conditions: 25, 30 and 40° C. at relative humidities of 60%, 60% and 75%, respectively.

Some results are limits rather than exact numbers.

Consider `Clc1ccc2c(c1)CCc1cccnc1C2=C1CCNCC1` [form 1, 8-chloro-6,11-dihydro-11-(4-piperidylidene)-5H-benzo[5,6]cyclohepta[1,2-b]pyridine], for which the “antihistaminic properties: prevention of histamine—induced lethality” value in data set [1] is on record as “demonstrated”. Also, the “change from initial sample % form 1 and related compounds” value in data set [2] was less than 1%.
